One data set has as its target T1, IRAK4 (Homo sapiens, UniProt Q9NWZ3).
T1 sequence (Q9NWZ3 1-460): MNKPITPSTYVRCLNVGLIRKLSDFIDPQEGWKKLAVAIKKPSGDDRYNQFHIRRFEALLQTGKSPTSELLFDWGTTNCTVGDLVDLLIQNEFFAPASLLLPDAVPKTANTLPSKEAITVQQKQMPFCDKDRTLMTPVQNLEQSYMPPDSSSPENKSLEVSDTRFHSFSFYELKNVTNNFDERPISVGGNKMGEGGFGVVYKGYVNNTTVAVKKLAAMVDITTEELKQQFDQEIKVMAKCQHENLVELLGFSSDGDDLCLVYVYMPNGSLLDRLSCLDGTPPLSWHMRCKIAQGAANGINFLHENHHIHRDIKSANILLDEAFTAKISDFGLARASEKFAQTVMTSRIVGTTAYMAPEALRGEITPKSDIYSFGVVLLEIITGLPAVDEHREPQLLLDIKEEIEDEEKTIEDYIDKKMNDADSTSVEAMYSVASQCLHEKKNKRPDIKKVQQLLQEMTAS
Kind of data set: IRAK-4 activity inhibition assay (Caliper). In kind it is biochemical. As to conditions: 37 μM ATP, 3.5 nM IRAK4.

A further data set has as its system Whole Blood. Kind of data set: In vitro LPS/R848-induced cytokine production assay in whole blood. In kind it is cell-based, human. As for the experimental part:
(§1) In Vitro LPS/R848/CpG-Induced Cytokine Production Assays in hPBMC or Whole Blood
(§2) Compounds of the present invention were also studied in in vitro LPS/R848/CpG-induced cytokine production assays. Exemplary protocols follow.
(§3) […] Cells were seeded in a 96-well plate with 130 ul/well of the cell suspension according to the plate map. 9 ul of 30 mM compound solution was added into the wells in the assigned rows, then serial solutions with 4× dilutions were made. That is, add 9 uL of 100% DMSO into each of the rest wells and take 3 uL of compound solution from the one-step higher concentration solution and mix well with the DMSO. For the second compound master plate, 196 uL of the growth medium (no serum media) were added into each of the wells and 4 uL of the compound solution from the first compound master plate was added and mixed with the media. Cells were treated for 0.5 h by adding 20 uL of the compound and the control solutions prepared in the second master plate to each well according to the plate map. […] Plates were sealed with sealing films and the plates were centrifuged at 3000 rpm at 4 degrees C. for 5 min. The supernatants were transferred, and 100 ul of working Capture antibody solution was added to each well. The plates were sealed and incubated overnight at RT. IL-6, IFN-α or TNF-α detection antibody labeled with biotin: Added 100 uL of the Detection Antibody solution to each well. Covered the plate and incubated for 2 h at RT. Added 100 uL of Streptavidin-HRP solution to each well. Covered the plate and incubate for 20 min at RT in dark. Added 100 uL of Substrate Solution to each well. Incubated for 20 min at RT in dark. Added 50 uL of Stop Solution to each well. Gently tapped the plate to ensure thorough mixing. Determined the optical density of each well immediately, using a microplate reader set to 450 nm and also read at 540 nm or 570 nm for correction if wavelength correction is not available.

In the next data set the test system is THP-1 cells. Kind of data set: LPS induced cytokine (TNFα and IL8) production assay in THP-1 cells. As to conditions: Homo sapiens, 300 ng/mL LPS. The format is cell-based. Summed up:
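THP-1 cells (100,000/well) pre-incubated 1 hour with compound in 0.3% DMSO, then stimulated with 300 ng/mL LPS. TNFα and IL8 in supernatant measured by HTRF at 5 hours; IL8 and viability also at 16 hours.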

The test system of a further data set is hPBMC. Kind of data set: In vitro LPS/R848/CpG/IL-1β-induced cytokine production assay in hPBMC. Conditions: Homo sapiens. In kind it is cell-based. How it is done:
as §1, §2, §3

In data set [1] the test system is collagen-induced arthritis. Kind of data set: In vivo murine collagen-induced arthritis model. Conditions: DBA mice, intraperitoneally 30 mg/kg twice a day, vs vehicle. How it is done: In Vivo Murine Collagen-Induced Arthritis Model Compounds of the present invention were also evaluated in mice in an in vivo efficacy model for inhibiting IRAK4-mediated arthritis. An exemplary protocol for this assay follows. Male DBA mice were immunized with collagen on day 0 and day 21 and randomly enrolled into groups upon onset of disease. […] Eight mice were enrolled per group with the exception of the naïve control group, which contained four mice. Day 1 was designated as the first treatment day, and mice were evaluated daily for clinical scores until day 11. The mice were weighed on alternating days.

The next data set concerns ABC DLBCL Cells. The experiment in a line: sensitization of ABC DLBCL cells to IRAK inhibitors by BTK knockdown. In kind it is cell-based. Conditions: BTK knockdown (FIG. 9). An excerpt:
FIG. 8 depicts the sensitization of ABC DLBCL Cells to IRAK Inhibitors by BTK knockdown.

The next data set has as its system GCB DLBCL Cells. The experiment in a line: sensitization of GCB DLBCL cells by BTK knockdown. Conditions: BTK knockdown (FIG. 10). The format is cell-based.
The test system of a further data set is ABC DLBCL cell lines. Kind of data set: Cell viability assay, combination with ibrutinib. In kind it is cell-based. How it is done: Compounds of the present invention were also evaluated in a cell viability assay.
A further data set concerns OCI-Ly10 cells. Kind of data set: In vivo murine xenograft tumor model of human ABC DLBCL lymphoma. As to conditions: NOD/SCID mice. As for the experimental part:
In Vivo Murine Tumor Model of Human ABC DLBCL Lymphoma
Compounds of the present invention were also evaluated in a xenograft tumor model of human ABC DLBCL lymphoma first described and disclosed in Staudt et al. (2012). The tumor was established by subcutaneous injection of OCI-Ly10 cells into immunodeficient (NOD/SCID) mice. […] Tumor growth was monitored by measuring tumor size in two orthogonal directions. The tumor volume was calculated by using the formula (1/2)(long dimension)×(short dimension)^2.

Setting [2] is: Homo sapiens, LPS 0.1 ug/mL, read-out: TNF-α production IC50.
Where [3] appears, read: Homo sapiens, R848 1 uM, read-out: IFN-α production IC50.
Where [4] appears, read: Homo sapiens, LPS 0.1 ug/mL, read-out: IL-6 production IC50.
Where [5] appears, read: R848 1 uM, read-out: TNF-α production IC50.
The mark [6] stands for this setting: LPS 0.01 ug/mL, read-out: IL-6 production IC50.
Where [7] appears, read: LPS 0.01 ug/mL, read-out: TNF-α production IC50.

By IC50 is commonly meant the midpoint of a concentration-inhibition curve.

Read-outs that look alike come from different tables or passages of the source.

For `NC(=O)C[C@H]1CCc2sc3ncnc(O[C@H]4CC[C@H](N5CCCC5)CC4)c3c21` [Compound I-105, 2-[(3R)-12-[[4-(pyrrolidin-1-yl)cyclohexyl]oxy]-7-thia-9, 11-diazatricyclo[6.4.0.0[2,6]]dodeca-1(8),2(6),9, 11-tetraen-3-yl]acetamide], the IC50 against IRAK4 is under 5000 nM; in the data set with Whole Blood (setting [2]), at least 1000 nM; in the data set with THP-1 cells (read-out: IL8 production IC50), at most 500 nM; with THP-1 cells (read-out: TNFα production IC50), 500 to 1000 nM.

For the compound `Cn1cc(Nc2nc(O[C@H]3CC[C@H](N(C)C)CC3)c3c4c(sc3n2)CCC4CC(N)=O)cn1` (stereo in doubt) [Compound I-224, 2-[(3S)-12-[[4-(dimethylamino)cyclohexyl]oxy]-10-[(1-methyl-1H-pyrazol-4-yl)amino]-7-thia-9,11-diazatricyclo[6.4.0.0[2,6]]dodeca-1(8),2(6),9,11-tetraen-3-yl]acetamide], the IC50 in the data set with Whole Blood (setting [2]) is at least 1000 nM; in the data set with Whole Blood (setting [3]), at least 1000 nM; in the data set with THP-1 cells (read-out: IL8 production IC50), at most 500 nM; in the data set on THP-1 cells (read-out: TNFα production IC50) it was at most 500 nM.

As for `NC(=O)[C@@H](O)C[C@H]1CCc2sc3ncnc(O[C@H]4CC[C@H](N5CCOCC5)CC4)c3c21` [Compound I-92, (S)-2-hydroxy-3-((R)-4-(((1r,4R)-4-morpholinocyclohexyl)oxy)-6,7-dihydro-5H-cyclopenta[4,5]thieno[2,3-d]pyrimidin-5-yl)propanamide], the IC50 in the data set on Whole Blood (setting [4]) was at most 250 nM; in the data set with Whole Blood (setting [2]), 500 to 1000 nM; with Whole Blood (setting [3]) it was 500 to 1000 nM; in the data set on Whole Blood (setting [5]), 500 to 1000 nM; in the data set with hPBMC (CpG 0.1 uM, read-out: IFN-α production IC50), 250 to 500 nM; with hPBMC (CpG 0.5 uM, read-out: TNF-α production IC50), at most 250 nM. Further, the concentration for half-maximal inhibition (IC50) is at most 250 nM in the data set on hPBMC (IL-1β 1 ng/mL, read-out: IL-6 production IC50); at most 250 nM with hPBMC (setting [6]); at most 250 nM in the data set on hPBMC (setting [7]); at most 250 nM in the data set on hPBMC (setting [5]); at most 500 nM in the data set with THP-1 cells (read-out: IL8 production IC50); at most 500 nM with THP-1 cells (read-out: TNFα production IC50). Further, the “Clinical scores, collagen-induced arthritis” value in [1] was “efficacious compared to the vehicle”. In addition, the “sensitization of ABC DLBCL Cells to compound by BTK knockdown” value in the data set on ABC DLBCL Cells is given as “sensitization”. Also, the “sensitization of GCB DLBCL Cells to compound by BTK Knockdown” value in the data set with GCB DLBCL Cells is reported as “lack of sensitization”. In addition, the “Killing of ABC DLBCL cells in combination with ibrutinib” value with ABC DLBCL cell lines is “Synergistic killing”. Also, the “ABC lymphoma growth (tumor volume)” value in the data set on OCI-Ly10 cells was “reduces ABC lymphoma growth”. In addition, in the data set on OCI-Ly10 cells, the “Tolerability in the animals” value is “well tolerated”.

Regarding `CN(C)[C@H]1CC[C@H](Oc2ncnc3sc4c(c23)C[C@@H](C(N)=O)CC4)CC1` [Compound I-233, (12S)-3-[[4-(dimethylamino)cyclohexyl]oxy]-8-thia-4,6-diazatricyclo[7.4.0.0[2,7]]trideca-1(9),2(7),3,5-tetraene-12-carboxamide], the IC50 against IRAK4 was under 5000 nM; in the data set on Whole Blood (setting [2]), at least 1000 nM; in the data set on Whole Blood (setting [3]), at least 1000 nM; in the data set on Whole Blood (setting [5]), at least 1000 nM; in the data set with THP-1 cells (read-out: IL8 production IC50) it was at most 500 nM; with THP-1 cells (read-out: TNFα production IC50) it was at most 500 nM.

In the case of `CN(CC(=O)N1CCCC1)[C@H]1CC[C@H](Oc2ncnc3sc4c(c23)[C@@H](CC(N)=O)CC4)CC1` [Compound I-73, 2-[(3R)-12-[(4-[methyl[2-oxo-2-(pyrrolidin-1-yl)ethyl]amino]cyclohexyl)oxy]-7-thia-9,11-diazatricyclo[6.4.0.0[2,6]]dodeca-1(8),2(6),9,11-tetraen-3-yl]acetamide], the IC50 is under 5000 nM on IRAK4, at least 1000 nM in the data set on Whole Blood (setting [2]), 1000 to 5000 nM in the data set with THP-1 cells (read-out: IL8 production IC50) and 1000 to 5000 nM in the data set with THP-1 cells (read-out: TNFα production IC50).

On to `CCN[C@H]1CC[C@H](Oc2ncnc3sc4c(c23)[C@@H](CC(N)=O)CC4)CC1` [Compound I-85, 2-((R)-4-(((1r,4R)-4-(ethylamino)cyclohexyl)oxy)-6,7-dihydro-5H-cyclopenta[4,5]thieno[2,3-d]pyrimidin-5-yl)acetamide], for which the half-maximal inhibitory concentration (IC50) against IRAK4 was under 5000 nM; in the data set with Whole Blood (setting [2]), at least 1000 nM; in the data set on THP-1 cells (read-out: IL8 production IC50), 500 to 1000 nM; in the data set with THP-1 cells (read-out: TNFα production IC50) it was 500 to 1000 nM.

With `Cn1cc(Nc2nc(O[C@H]3CC[C@H](N4CCOCC4)CC3)c3c4c(sc3n2)CC[C@@H]4CC(N)=O)cn1` [Compound I-235], the IC50 is at least 1000 nM in the data set with Whole Blood (setting [2]), at least 1000 nM in the data set with Whole Blood (setting [3]), at most 500 nM in the data set with THP-1 cells (read-out: IL8 production IC50) and at most 500 nM in the data set on THP-1 cells (read-out: TNFα production IC50).

For `NC(=O)[C@H]1CCc2sc3ncnc(O[C@H]4CC[C@H](N5CCOCC5)CC4)c3c2C1` [Compound I-220, (12S)-3-[[4-(morpholin-4-yl)cyclohexyl]oxy]-8-thia-4,6-diazatricyclo[7.4.0.0[2,7]]trideca-1(9),2(7),3,5-tetraene-12-carboxamide], the IC50 against IRAK4 is under 5000 nM; in the data set with Whole Blood (setting [2]), at least 1000 nM; in the data set with Whole Blood (setting [3]), at least 1000 nM; in the data set with Whole Blood (setting [5]), at least 1000 nM; with THP-1 cells (read-out: IL8 production IC50), at most 500 nM; with THP-1 cells (read-out: TNFα production IC50), at most 500 nM.

For the compound `CN[C@H]1CC[C@H](Oc2ncnc3sc4c(c23)[C@@H](CC(N)=O)CC4)CC1` [Compound I-79, 2-[(3R)-12-[[4-(methylamino)cyclohexyl]oxy]-7-thia-9,11-diazatricyclo[6.4.0.0̂[2,6]]dodeca-1(8),2(6),9,11-tetraen-3-yl]acetamide], the IC50 on IRAK4 was under 5000 nM; in the data set with Whole Blood (setting [4]), at least 1000 nM; in the data set on Whole Blood (setting [2]), at least 1000 nM; in the data set on hPBMC (setting [6]), at least 1000 nM; with hPBMC (setting [7]), at least 1000 nM; in the data set with THP-1 cells (read-out: IL8 production IC50) it was 500 to 1000 nM. For the same compound, the IC50 in the data set with THP-1 cells (read-out: TNFα production IC50) fell in the range of 1000 to 5000 nM.

Values taken from patent US20160193216A1 (Nimbus Iris, Inc., priority 2012, published 2016).
